In brackets after ≈: the same amount, converted by molar mass. Where two headings read alike, the source gives them in different places.

Usually MIC stands for the lowest concentration found to suppress growth.

A short description of data set [1]: Franz cell nail penetration, single dose (constant exposure). Type of data set: in vitro ADME, human. The method, then:
Nail clippings were soaked in water overnight at 30° C. and dried briefly. A 3 mm diameter punch was used to take disc biopsies of the nail clippings. Each nail disc was added to a Franz cell and an upper chamber of the cell attached. 40 μl of the following formulations was added to the upper chambers: 0.3 mg/ml PHMB+0.1 mg/ml terbinafine; or 10 mg/ml terbinafine. Lower collection chambers of the Franz cells were filled with water (approximately 600 μl) and the hole in the base of the sample chamber also filled with ddH2O to prevent bubbles forming beneath the nail. The upper sample chamber was carefully placed into the collection chamber ensuring not to introduce any air bubbles. Excess liquid from the collection chamber was expelled at this point leaving a final volume of liquid in the lower chamber of 500 μl. […] The nail discs from the Franz cell were also analysed for the presence of terbinafine as follows: the remaining test sample was removed from the upper sample chamber and discarded and the sample chamber washed 5 times with 100 μl ddH2O, with each wash being discarded, in order to remove any residual test solution remaining in the sample chamber. […] After 7 days, samples from the underside of the nail (ethanol washes) were collected and analysed by LC-MS/MS. […] Levels of terbinafine were quantified against drug standards. […]

Another data set has as its system T. mentagrophytes. Description: Trychophyton mentagrophytes anti-fungal paper disc lawn assay. Type of data set: cell-based. Particulars: 5 days incubation. The method, then: FIGS. 6A-6E are photographic images of yeast extract peptone dextrose (YEPD) agar plates with Trychophyton mentagrophytes after incubation for 4 days at 30° C. […] 40 μl of double distilled water or terbinafine solution of varying concentration was spotted onto each paper disc. The concentration of the terbinafine solutions used were: 0 μg/ml (control, FIG. 6A), 0.06 μg/ml (FIG. 6B), 0.6 μg/ml (FIG. 6C), 6.00 μg/ml (FIG. 6D) and 60.0 μg/ml (FIG. 6E); FIGS. 7A and 7B are photographic images of YEPD plates assessing the efficacy of BB2603 (terbinafine and PHMB nanoparticles) and terbinafine samples passing through healthy human nail against Trychophyton mentagrophytes A lawn of Trychophyton mentagrophytes was spread onto YEPD agar plates supplemented with 50 μg/ml chloramphenicol. The aqueous samples from the Franz cell collection chamber following 7 days treatment of healthy human nails with either 0.1 mg/ml terbinafine (FIG. 7A) or BB2603 (FIG. 7B) were spotted onto 10 mm paper discs. The discs were placed in the middle of the Trychophyton plates, which were then incubated at 30° C. for 5 days to allow the fungi to grow. […]

In a further data set the test system is Epidermophyton floccosum. Particulars: 42 strains tested; cited from earlier work.
A further data set deals with Microsporum species. Particulars: 25 strains tested; cited from earlier work.
For another data set, the system named is Microsporum canis. To be noted: 49 strains tested; cited from earlier work.
A further data set deals with Trichophyton species. To be noted: 27 strains tested; cited from earlier work.
For the next data set, the system named is Trichophyton rubrum. Particulars: 72 strains tested; cited from earlier work.
The subject of the next data set is Trichophron verrucosum. To be noted: 17 strains tested; cited from earlier work.
For data set [2], the system named is Trichophron mentagrophytes. Particulars: cited from earlier work.
For data set [3], the system named is Trichophyton interdigitale. Particulars: 11 strains tested; cited from earlier work.
For a further data set, the system named is Trichophyron terestre. Particulars: 1 strain tested; cited from earlier work.
For data set [4] the following is noted: cited from earlier work.
The subject of another data set is onychomycosis. Particulars: following 3-6 months of dosing, oral; cited from earlier work.

`CN(C/C=C/C#CC(C)(C)C)Cc1cccc2ccccc12` [terbinafine]: the “concentration of terbinafine in ethanol washes of the underside of the nail” value in [1] (0.1 mg/ml, 30% (v/v) ethanol, 7 days, single dose, BB2603 value is median) is under 0.1 ng/mL. The “median concentration of drug in dissolved nails” value in [1] (after 7 days, FIGS. 4 and 5A-5B) is “approximately 0.5 mg/g”. The molecule further returned an MIC with T. mentagrophytes (Trichophyton mentagrophytes, 120 h, 30° C.) of 0.6 µg/mL (≈ 2060 nM). The “zone of clearance with Franz cell aqueous sample passed through nail” value with T. mentagrophytes (collection chamber sample after 7 days nail treatment) is “no effect”. Also, the MIC range is 1 to 47 ng/mL with Epidermophyton floccosum; 2 to 70 ng/mL in the data set on Microsporum species; 6 to 80 ng/mL in the data set with Microsporum canis; at most 0.06 µg/mL in the data set with Trichophyton species; 1 to 38 ng/mL with Trichophyton rubrum; 1 to 6 ng/mL in the data set on Trichophron verrucosum. Besides, the values for the MIC range (in data set [2] (32 strains tested); in [3]; in the data set with Trichophyron terestre) were 1 to 6 ng/mL, 2 to 28 ng/mL and 2 ng/mL (≈ 6.86 nM), respectively. Moreover, the “previously reported MIC” value in [2] (liquid MIC assay) is 6 ng/mL. Further, the “concentration in nails following oral dosing” value in [4] (after 3 weeks) is “about 0.25 μg/g”; in [4] (after 18 months), 0.55 µg/g; in [4] (after 7 days treatment) it was 0.1 µg/g. Besides, the cure in the data set on onychomycosis is listed as over 80%.

(Values after patent publication US11484512B2, “Nanoparticles formed of a polymer and terbinafine” (Blueberry Therapeutics Limited, priority 2017, dated 2022).)
